Read-outs that look alike come from different tables or passages of the source. Blank lines part the entries; values can stand above or below the molecule they belong to. Residues, ends and D or L forms follow the SMILES beside them. *: point of attachment. Cbz = O=C(OCc1ccccc1)*; CH2F = FC*
Assays:
[1] = target: T1, NGly1 (Homo sapiens, UniProt Q96IV0); test: Gel shift of RNAse B exposed to recombinant Ngly1; format: biochemical; details: gel electrophoresis, in the presence of the compound
T1 sequence (Q96IV0 1-654): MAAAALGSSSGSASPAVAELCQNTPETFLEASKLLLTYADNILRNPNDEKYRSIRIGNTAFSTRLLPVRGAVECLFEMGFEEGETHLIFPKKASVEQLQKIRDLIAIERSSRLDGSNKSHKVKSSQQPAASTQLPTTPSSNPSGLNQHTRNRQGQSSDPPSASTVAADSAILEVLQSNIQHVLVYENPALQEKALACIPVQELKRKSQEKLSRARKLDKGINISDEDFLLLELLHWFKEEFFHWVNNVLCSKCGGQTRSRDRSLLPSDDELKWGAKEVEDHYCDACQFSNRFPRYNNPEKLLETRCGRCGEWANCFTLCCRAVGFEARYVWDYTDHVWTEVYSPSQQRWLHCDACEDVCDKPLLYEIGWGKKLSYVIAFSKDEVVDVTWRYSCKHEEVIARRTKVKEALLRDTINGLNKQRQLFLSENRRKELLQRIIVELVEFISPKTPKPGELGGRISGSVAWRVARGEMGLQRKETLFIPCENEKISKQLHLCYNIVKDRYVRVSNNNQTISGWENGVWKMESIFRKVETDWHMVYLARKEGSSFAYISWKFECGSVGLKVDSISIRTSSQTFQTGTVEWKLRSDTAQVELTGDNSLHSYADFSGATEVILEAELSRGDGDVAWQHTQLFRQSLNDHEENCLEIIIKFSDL
Text: To detect direct inhibition of NGly1 by WRR139, the mass shift of RNAse B exposed to recombinant Ngly1 was observed by gel electrophoresis. In the presence of Ngly1, RNAse B was fully converted from its glycosylated band at pXXX to a deglycosylated protein at pXXX (FIG. 4D).

[2] = tested on: Nrf1; test: Confocal imaging of Nrf1 localization in Nrf1 overexpressing HEK cells; format: cell-based, Human
Text: We further used confocal microscopy to visualize the localization of Nrf1 in MEFs and Nrf1 overexpressing HEK cells before and after treatment with carfilzomib (FIGS. 2B and C). In absence of carfilzomib Wt and NGly1^−/− MEFs show Nrf1 (in white) in low abundance and mainly in the cytosol (FIG. 2B). After treating the cells with carfilzomib for several hours, wt MEFs show Nrf1 in the nucleus whereas NGly1^−/− MEFs only show a higher abundance of Nrf1 in the cytosol. […] Untreated cells show Nrf1 mainly in the cytosol around the ER. […] Taking all the results in account we conclude that functioning NGly1 is required to activate Nrf1.
Immunofluorescence followed by confocal imaging. MEFs and Nrf-3× Flag overexpressing HEK cells were grown to 80% confluency on cover slips. Cells were treated with NGLy1-, caspase-, and proteasome inhibitors as indicated and allowed to recover in fresh media for one hour before cells were fixed using 100% ice cold methanol. Cells were treated with a primary rabbit monoclonal antibody raised against the N-terminus of Nrf1 (D5B10, Cell Signaling) and a secondary polyclonal Alexa Fluor0647 AffiniPure Fab Fragment Goat Anti-Rabbit IgG (H+L) (Jackson Immuno Research). […] Images were analyzed using Imaris analysis software (version). […]

[3] = tested on: multiple myeloma cell lines; test: Potentiation of proteasome inhibition in multiple myeloma cell lines; format: cell-based
Text: Considering the effect of NGly1 KO or knockdown for proteasome inhibitor potentiation, we hoped to find the same effect through the use of a small molecule inhibitor of NGly1. Attempts to use Z-VAD-fmk to potentiate proteasome inhibition in multiple myeloma cell lines were unsuccessful, possibly due to its activity as a potent pan-caspase inhibitor.

[4] = target: T1, NGly1; test: Cresswell assay (ddVenus fluorescence on deglycosylation by NGly1) in stably transfected K562 cells; format: cell-based; parameters: endogenous in cells; host or cells: K562 cells stably transfected with the ddVenus reporter; details: for IC50: K562 ddVenus cells, read-out: IC50 (reduction of fluorescence)
Text: The assay used was a modified version of the fluorimetric assay first described by the Cresswell lab in 2011. Prepared by the Steinmetz lab, a stably transfected K562 cell line was used. Mutated to misfold and contain a site for N-glycosylation, the expressed ddVenus would only properly fold, and thus fluoresce, upon deglycosylation by NGly1 and concurrent conversion of the glycosylated asparagine residue to aspartic acid (FIG. 4A). Thus inhibition of NGly1 would not activate fluorescence in this assay. With this method a library of about 600 cysteine-protease inhibitor-like compounds were screened. Six hits were found, all of which were peptide-derived structures with an electrophilic warhead consisting of either a vinyl sulfone or epoxyketone (FIG. 4B).
Screen of ˜600 compounds with the Cresswell Assay. Screens were performed clear, V-bottom 96-well plates. Plates were prepared with negative control 2 μL DMSO (A1) and positive control 1 μL DMSO+1 μL 10 mM Z-VAD-fmk (final conc. 100 uM Z-VAD-fmk; A12-H12). Wells A2-A11 contained 1 μL DMSO, the remaining wells contained 1 μL of 1 mM stocks of compounds from the library.
100 μL of suspended K562 ddVenus cells were added to the plate at 1×10^6 cells/mL. Wells A1-A12 contained cells in growth media. The remaining wells contained cells in growth media supplemented 100 uM carfilzomib.
The mean of fluorescence in FL1 was plotted for each well.
Z-factor for the assay ranged between 0.38-0.85.

[5] = tested on: Nrf1; test: Immunoblot of Nrf1 processing in Nrf1 overexpressing HEK cells; format: cell-based, Human; details: compound before carfilzomib
Text: In a second attempt, we used Nrf1 overexpressing HEK cells and applied the small molecule Z-VAD-fmk (FIG. 1B) to inhibit NGly1 before treating the cells with carfilzomib. […] The higher abundance of the p120 band indicates the existence of the N-glycosylated form of Nrf1 as the main species in cells treated with Z-VAD-fmk. […] Thus, the incorrect processing of Nrf1 that we observed in cells treated with Z-VAD-fmk results from inhibition of NGly1 and not from caspase inhibition.
Nrf-3× Flag overexpressing HEK cells (RDB-2867; a kind gift from Senthil Radhakrishnan, Virginia Commonwealth University) were obtained by cloning Human Nrf1 coding region along with a C-terminal 3× Flag sequence into pcDNA3.1+ (Invitrogen, Carlsbad, Calif.). Cells were grown in Dulbecco's modified Eagle's medium (DMEM) supplemented with 10% fetal bovine serum (Clontech Laboratories), penicillin, and streptomycin (Fisher Scientific) at 37° C. in 5% CO2.
Immunoblot Analysis. Cells were lysed in RIPA buffer (50 mM Tris [pH 7.4], 150 mM NaCl, 1% NP40, 1% Na. Deoxycholate, 0.1% SDS, and 1 mM EDTA) supplemented with protease and phosphatase inhibitor cocktail (Pierce). For detecting Nrf1 a rabbit monoclonal antibody raised against the N terminus (D5B10, Cell Signaling) was used. Other immunoblots were performed with antibodies specific for Flag tag (Sigma-Aldrich) and β-actin (Cell Signaling).

[6] = tested on: Nrf1; test: 3xPSMA4-ARE dual luciferase reporter assay in Nrf1 overexpressing HEK cells; format: cell-based, Human; details: compound prior to carfilzomib
Method: The same experiment was performed in Nrf1 overexpressing HEK cells in which NGly1 was inhibited by Z-VAD-fmk prior to incubation with carfilzomib. The caspase inhibitor QVD-OPh served as control to out rule that observed effect resulted from caspase inhibition.
(§1) Luciferase Assays. The construct 3xPSMA4-ARE-Luc (RDB-2415; a kind gift from Senthil Radhakrishnan, Virginia Commonwealth University) was described previously. Briefly, an oligo (5′-[…] […] […] […] […] […] […]-3′) (SEQ ID NO: 10) containing three copies of a putative ARE (shown in uppercase) derived from the first intron of the human PSMA4 gene was annealed to its corresponding reverse-complement oligo and cloned into pGL3-promoter vector (Promega). The promoter reporter was generated by inserting this construct upstream of a minimal SV40 promoter, driving the expression of a firefly luciferase.
Cells were transiently transfected with the firefly (promoter reporters) and renilla luciferase (pRL-TK; Promega) constructs along with effector plasmid as required. Cells were treated with compoubds or vehicle control for 12 hours. Afterwards cells were lysed in the luciferase assays were performed using the dual luciferase reporter assay system (E1910; Promega) according to the instructions from the manufacturer. The firefly luciferase activity was normalized to renilla luciferase activity for all experiments.

[7] = patients; cited from earlier work
[8] = tested on: U266 cells
Method: (§2) Cell survival experiments using the Cell Titer-Glo 2.0 assay were performed in opaque white flat-bottomed 96-well plates. The cells (1.0-2.0×10^4 in 100 μL fresh media) were treated under the desired conditions and incubated for 24 or 48 h before addition of 100 μL assay reagent. Viability was calculated as percent signal compared to vehicle treated cells. Regression analysis and IC50 calculations were performed with GraphPad Prism 7.0.
(§3) U266 and H929: U266 or H929 cells were seeded at a density of 0.1 million cells/mL in RPMI medium (100 μL per well). The following day, carfilzomib, DMSO, or WRR139 were added in DMSO to final concentrations as shown for a maximum final concentration of 1% DMSO (v/v). After 48 h of incubation at 37° C. with 5% CO2, the plate was retrieved and treated with the Cell Titer-Glo 2.0 assay. After 10 minutes incubation the plate was analyzed by measuring the luminescence using a Spectra max®i3x (VWR, Australia) plate reader.

[9] = tested on: caspases 3/7; test: Caspase 3/7 inhibition assay (Caspase-Glo, staurosporine-induced U266 cells); format: cell-based; details: staurosporine 1 μM, 8 hours
Method: We were further interested to see whether this molecule would also hit caspases, similar to the known Ngly1 inhibitor Z-VAD-fmk. […] Inhibition of caspases 3/7 was not observed until a concentration of about 10 μM was reached. In addition, the relative activity was not lowered below the range observed by induced apoptosis
Caspase 3/7 inhibition assay. 1 million U266 cells were suspended in 10 mL RPMI 15% BSA+PS, and plated into a flat-bottom, white-walled 96-well plate (100 μL per well). The plate was incubated at 37° C. overnight. The following day, cells were treated with staurosporine (apoptosis inducer, final concentration 1 μM), WRR139 or Z-VAD-fmk (at final concentrations shown) or DMSO to a final concentration of 2% DMSO (v/v) respectively. The plate was incubated for 8 hours at 37° C. Caspase-Glo kit reagent (company details) was prepared as per instruction from the manufacturer and after equilibration to 23° C. […] of the reagent was added to each well. […] Caspase inhibition was calculated by subtracting background (signal from media containing no cells) and comparison to signal from cells with induced apoptosis (staurosporine only).

[10] = tested on: H929 cells
Method: as §2, §3

[11] = tested on: Nrf1; test: 3xPSMA4-ARE dual luciferase reporter assay in MEFs; format: cell-based, Mouse; details: 12 hour incubation
Text: According to the theory the active form (p110) of Nrf1 that translocates to the nucleus and activates proteasome genes, is produced upon removal of the N-glycans. Using a construct in which three copies of the antioxidant respond element (ARE) of the human PSMA4 gene were inserted upstream of a SV40 promoter that drives the expression of firefly luciferase in a dual luciferase reporter assay, where plasmids expressing renilla luciferase were used as internal transfection control, we compared the reporter activity in NGly1^−/− MEFs and Wt MEFs after treatment with carfilzomib.
as §1
Cells were transiently transfected with the firefly (promoter reporters) and renilla luciferase (pRL-TK; Promega) constructs along with effector plasmid as required. […]

[12] = tested on: Proteasome; details: blood and PBMCs, cited from earlier work
[13] = tested on: K562 cells; test: Carfilzomib sensitivity of CRISPRi-knockdown K562 cell lines; format: cell-based
Method: Carfilzomib sensitivity of CRISPRi-knockdown k562 cell lines. Carfilzomib dissolved in DMSO at a concentration of 10 mM was used freshly or stored at −80° C. for no longer than a month without repeated freeze-thaw cycles. K562 cells were seeded at a density of 0.2 million cells/ml in 100 μl of RPMI medium in each well of a 96-well plate for 18 hours before treatment. The next day, serial-diluted Carfilzomib or DMSO was added to the cells with a final concentration of DMSO of 0.1% (v/v) in each well. After 48 hours of incubation at 37° C., the plate was retrieved and stained with a calcein-based LIVE/DEAD® Viability/Cytotoxicity Kit (Thermo Fisher Scientific), according to the manufacturer's instruction. The cells were then counted on an Accuri C6 flow cytometer (BD Biosciences, CA, USA). A total of 10,000 events was collected for each well. The viability was calculated as the percent of calcein-positive cells in each Carfilzomib-treated sample, normalized to that of the DMSO-treated vehicle control.

[14] = tested on: MEF cells; test: Viability of MEF NGly1-/- versus MEF WT with carfilzomib (WST-1); format: cell-based, Mouse; details: 24 h incubation, doses 5-100 nM

IC50 [4]: 4.4 µM
SMILES: COC(=O)C[C@H](NC(=O)[C@H](C)NC(=O)[C@@H](NC(=O)OCc1ccccc1)C(C)C)C(=O)CF [Z-VAD-fmk, carbobenzoxy-valyl-alanyl-aspartyl-[O-methyl]-fluoromethylketone] (Cbz-Val-Ala-Asp(OMe)-CH2F)
deglycosylation of RNAse B by recombinant Ngly1 [1]: only the original band remains, with no conversion to the deglycosylated form
localization of Nrf1 ([2]; compound prior to incubation with carfilzomib): high abundance of Nrf1 in the cytosol
potentiation of proteasome inhibition [3]: unsuccessful
Nrf1 processing (p120/p110 bands) [5]: abnormal processing of Nrf1
reporter activity [6]: did not show an increased reporter activity

SMILES: CC(C)C[C@H](NC(=O)[C@H](Cc1ccccc1)NC(=O)c1cnccn1)B(O)O [bortezomib]
incidence of neuropathy [7]: 30-60%

SMILES: Cc1ccc(S(=O)(=O)/C=C/C(=O)N[C@@H](CCc2ccccc2)C(=O)NCCC(C)C)cc1 [WRR139]
deglycosylation of RNAse B by recombinant Ngly1 [1]: only the original band remains, with no conversion to the deglycosylated form
increase in killing / reduction of LD50 of carfilzomib ([8]; U266, WRR139 plus carfilzomib vs carfilzomib alone): 2.6 fold
cell survival, co-inhibition with carfilzomib compared to carfilzomib alone ([8]; U266, after 24 hours): significantly decreased cell survival
concentration at which inhibition of caspases 3/7 is first observed [9]: about 10 μM
NGly1 inhibition in validation of the hits ([4]; FIG. 4C): inhibit NGly1 in a dose-dependent manner
IC50 [4]: 5.5 µM
increase in killing / reduction of LD50 of carfilzomib ([10]; H929, WRR139 plus carfilzomib vs carfilzomib alone): 2 fold
cell survival, co-inhibition with carfilzomib compared to carfilzomib alone ([10]; H929, after 24 hours): significantly decreased cell survival

SMILES: CC(C)C[C@H](NC(=O)[C@H](CCc1ccccc1)NC(=O)CN1CCOCC1)C(=O)N[C@@H](Cc1ccccc1)C(=O)N[C@@H](CC(C)C)C(=O)[C@@]1(C)CO1 [carfilzomib]
localization of Nrf1 ([2]; carfilzomib alone): the majority of Nrf1 was observed in the nucleus
reporter (PSM) activity ([11]; NGly1-/- MEFs): no response
reporter (PSM) activity ([11]; Wt MEFs): increase in PSM activity
inhibition of proteasome activity ([12]; 15 mg/m^2, after the first dose): > 75%
inhibition of proteasome activity ([12]; after five doses): > 90%
LD50 ([13]; K562, dCAS9 knockdowns of Nrf1 or NGly1 (sgNrf1-A, sgNrf1-B, sgNGly1)): 20 nM
LD50 ([13]; K562, no sgRNA or control sgRNA): 40 nM
sensitivity of NGly1-/- cells relative to MEF WT [14]: over 2 fold

Reference: patent publication US11141389B2, “Agents that inhibit NGLY1 and methods of use thereof” (The Board of Trustees of the Leland Stanford Junior …, priority 2017, dated 2021)
